Positions of bridges follow the written chain, without caps; N, C: chain ends. No end group written: not given here.
Tested on: IL-6 production in primary human mesangial cells
Experiment: ET-1 induced IL-6 production in HRMCs (ELISA)
Type: cell-based

In the case of “ET-1: endothelin 1 (ET-1), used to stimulate primary human mesangial cells (CSCSSLMDKECVYFCHLDIIW; disulfide 1-15, 3-11; ends not checked; UniProt P05305 53-73, looked up)”, the “increase in IL-6 production by primary human mesangial cells exposed to ET-1” value (48 hours) is reported as ~6 fold and the “increase in IL-6 production by primary human mesangial cells exposed to ET-1” value (72 hours) is reported as ~2.2 fold.

Source: patent publication US20220304978A1, “INHIBITING MESANGIAL CELL ACTIVATION” (Chinook Therapeutics, Inc., priority 2019, published 2022)
